In one data set the test system is diabetic RIP-DTA mice. The experiment in a line: RIP-DTA mouse model of T1D. Type of data set: in vivo. The note with it: 50 mg kg^−1 twice daily. An excerpt: All animal care and experimental procedures were approved by the Institutional Animal Care and Use Committee (IACUC) of Genomics Institute of the Novartis Research Foundation and strictly followed the NIH guidelines for humane treatment of animals. The double transgenic RIP-DTA male mice (Tg(Ins2-rtTA)2Efr Tg(teto-DTA)1Gfi/J; Jackson Laboratory, Stock # 008755) were bred in-house and were maintained in a 12-h light/12-dark cycle environment with controlled temperature, humidity and ventilation. Animals were housed 3–5 mice per cage and had free access to water and standard laboratory chow. To induce pancreatic β-cell ablation and hyperglycaemia, doxycycline (200 μg ml^−1, Sigma-Aldrich) was provided in the drinking water for 5 days. Blood glucose levels were measured from tail-vein blood with a glucometer (AlphaTrak2 Monitoring System; Abbott). Experimental groups of 14 male mice each were randomized based on similar body weights (28.8±2.4 g), age (82±2 days), and blood glucose levels (428±96 mg dl^−1). Group sizes of eight animals each are sufficient to reliably detect changes in glycaemic control and β-cell mass based on historical data with reference compounds; an additional six mice were added to each group to assess total pancreatic insulin levels. […] A sub-set of animals were not given doxycycline treatment and were used as a non-diabetic vehicle–control group. All compounds were administered daily via oral gavage (4 ml kg^−1). Body weight and blood glucose were monitored every third day. An oral glucose tolerance test was performed after an overnight fast on day 12. For the insulin tolerance test, mice were fasted for 4 h before the administration of insulin (Novolin, Novo Nordisk, 0.7 U kg^−1 body weight, i.p.). Pancreatic insulin content was determined by MSD (meso-scale discovery). […] To determine β-cell proliferation and β-cell mass by morphological analyses, pancreata from the rest of animals (n=8) were rapidly dissected, fixed in formalin, sectioned and immunostained for insulin, Ki67 and BrdU on day 16. Male NSG mice, aged 8 weeks, were obtained from the Jackson Laboratory (Strain NOD.Cg-Prkdc^scid Il2rg^tm1Wjl/SzJ; Stock number 005557) and housed according to IACUC guidelines. Baseline body weight and tail-vein blood glucose measurements were recorded before diabetic induction. To obtain a diabetic state, animals were given an intraperitoneal dose of STZ (135 mg kg^−1) and blood glucose was monitored before transplant. Mice were grouped according to body weight and blood glucose level on the day of transplants (72 h after STZ treatment).
Pancreas specimens were harvested, weighed, fixed in 10% neutral buffered formalin and processed using standard paraffin processing techniques. Five micrometre serial-step sections were mounted onto Superfrost Plus slides and air-dried overnight. Samples were coded before histologic analyses resulting in blinded processing and staining. Routine hematoxylin and eosin (H&E) stains were performed on all specimens. Immunostaining was performed using the Ventana Discovery XT system. All epitope retrieval was done on the instrument using CC1 reagent. Chromogenic insulin was detected using guinea pig anti-insulin (Dako Corp A0564) at 1:3,200 and the Blue Map kit, after serum blocking and endogenous biotin blocking was performed, slides were then counterstained with Nuclear Fast Red. Fluorescent insulin and Ki67 double stains used a cocktail of the Dako anti-insulin at 1:1,600 and rabbit monoclonal Ki67 (Thermo RM9106) at 1:100, and were detected using a cocktail of Alexa Fluor 488 and 594-labelled secondary antibodies. Auto-fluorescence was quenched in red blood cells and reduced in connective tissue by treatment with 10 mM copper sulfate. Slides were counterstained with DAPI. 21 slides were collected per block. All slides were imaged on the Hamamatsu Nanozoomer and evaluated for β-cell mass and proliferation. […]

The test system of another data set is primary human islets. Briefly: TUNEL in β-cells. Conditions: 4 days in the presence of EdU. Type of data set: cell-based. As to the method: Supplementary Figure 2. […] (a-c) Primary human […]
for 4 days in the presence of EdU. […]
effects on TUNEL in EdU positive cells while CDK6 and Cyclin D1 increased TUNEL staining in EdU positive cells (consistent with previous reports) (n=3; mean ± SD). (d) Human islets were […]
for 16 hrs in the presence of EdU. Following treatment, cells were analyzed for TUNEL, and stained for insulin and DAPI.
TUNEL without EdU incorporation. […]
(1 picture or pasted object on this page, not shown here)

The next data set deals with T1, GSK3beta (Homo sapiens, UniProt P49841).
T1 construct: purchased Ambit KINOMEscan
T1 sequence (P49841 whole entry): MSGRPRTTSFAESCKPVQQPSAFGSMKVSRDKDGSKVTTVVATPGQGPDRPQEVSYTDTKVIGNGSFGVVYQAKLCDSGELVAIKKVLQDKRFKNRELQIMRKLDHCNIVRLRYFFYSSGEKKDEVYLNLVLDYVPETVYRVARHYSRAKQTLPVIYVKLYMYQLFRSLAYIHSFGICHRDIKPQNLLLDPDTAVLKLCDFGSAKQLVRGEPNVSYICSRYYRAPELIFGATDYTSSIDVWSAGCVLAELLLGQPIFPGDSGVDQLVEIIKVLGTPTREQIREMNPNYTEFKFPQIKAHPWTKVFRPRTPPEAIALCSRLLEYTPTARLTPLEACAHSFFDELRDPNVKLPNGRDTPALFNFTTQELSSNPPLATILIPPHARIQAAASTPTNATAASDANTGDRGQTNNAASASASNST
Briefly: Kinase profiling. The note with it: Conc 1000 nM; read-out: Percent inhibition, GSK3beta. The class given is biochemical.

For data set [1], the system named is human islets transplanted into STZ-treated NOD-SCID mice. Briefly: Transplantation of compound-treated human islets into STZ-treated NOD-SCID mice. Type of data set: in vivo, mouse. The note with it: islets treated in vitro before transplantation. The text has this: Figure 2 AP compounds expand human islets ex vivo with retention of function after transplantation. […] (a) Immunofluorescence for insulin, Ki67 and DAPI on DMSO or GNF4877-treated human intact islets (scale bar, 50 μm). (b) Quantification of Ki67+ as a percent of total insulin+ cells (n=3). […] Data are shown as mean±s.d. (six mice per group; transplanted with islets from a single human donor). […] Data shown as mean±s.d.; (n=6 mice/group, *P<0.05, Student's t-test).
We tested whether aminopyrazine treatment of islets compromised their ability to secrete insulin in vitro and, after transplantation, in vivo.

The text below walks through data of article PMC4639830, “Inhibition of DYRK1A and GSK3B induces human β-cell proliferation” (Nature Communications, 2015).

For `CC(C)Oc1ccc(F)c(-c2cnc(N)c(C(=O)Nc3cnccc3N3CCC[C@@H](C(=O)O)C3)n2)c1` [GNF4877], in the data set with diabetic RIP-DTA mice (14 days of dosing), the “oral glucose tolerance vs vehicle” value is “dramatically improved glucose tolerance”. For the same compound, in the data set with diabetic RIP-DTA mice (oral), the “body weight, appearance or behaviour vs vehicle” value is listed as “did not show any difference in body weight”; the “insulin tolerance vs vehicle” value is on record as “without a significant difference in insulin tolerance”; the “non-fasting blood glucose levels” value is on record as “progressive reduction of non-fasting blood glucose levels”. Moreover, the “β-cell mass, increase vs vehicle-treated diabetic mice” value in the data set on diabetic RIP-DTA mice (oral, 14 days) is recorded as approximately 1.5 fold. The “insulin content, increase vs vehicle-treated diabetic mice” value in the data set on diabetic RIP-DTA mice (oral, whole pancreas lysate, 15 days) is listed as “twofold”. Besides, the “TUNEL-positive β-cells” value with primary human islets is listed as “unchanged”.
Consider `Nc1ncc(-c2ccccc2)nc1C(=O)Nc1cnccc1N1CCC(C(=O)O)CC1` [GNF7156], for which the inhibition at 1 µM at GSK3beta was 99%. Also, in data set [1], the “euglycemia after transplantation of treated islets” value was “maintained the ability to preserve euglycemia”.

By inhibition is commonly meant the drop in the measured response relative to a control, in per cent.
